Laboratory results: PMC9864251 (Viruses, 2022)

Assays:
RAW 264.7 cells = test: Cytotoxicity by the MTS method in uninfected RAW 264.7 cells; format: cell-based, mouse; conditions: 3 days, 0.6–100 μM range, mean ± SD, at least three independent experiments
HuNoV (GII.4) RdRp [1] = biological target: T1, HuNoV (GII.4) RdRp (Norovirus GII.4 (Human norovirus, Norovirus norwalkense), UniProt P54634); test: Gel-based (gel-shift) RdRp primed elongation assay with PE44-NoV template; format: biochemical; conditions: compounds at fixed concentration of 100 μM
HuNoV (GII.4) RdRp [2] = biological target: T1, HuNoV (GII.4) RdRp; test: Quantitative fluorescent RdRp activity assay (PicoGreen, poly(C) template); format: biochemical; conditions: compounds at 20 μM in triplicate, normalized to DMSO control
HuNoV (GII.4) RdRp [3] = biological target: T1, HuNoV (GII.4) RdRp; conditions: activity data as previously reported ref 18,19, read-out: In Vitro RdRp Activity Assay IC50; cited from earlier work
[4] = test system: MNV (virus strain MNV-1.CW1); test: MNV antiviral MTS-based cytopathic effect; format: cell-based, murine norovirus; conditions: Norwalk virus, RAW264.7, 72 h, read-out: MNV EC50
HuNoVpol = test system: HuNoVpol; parameters: method as in earlier work; conditions: cited from earlier work
MNV = test system: MNV; parameters: method as in earlier work; conditions: cited from earlier work
MNVpol = test system: MNVpol; parameters: method as in earlier work; conditions: cited from earlier work
NoV = test system: NoV; parameters: method as in earlier work; conditions: cited from earlier work
[5] = parameters: method as in earlier work; conditions: cited from earlier work

T1 sequence (P54634 1190-1699): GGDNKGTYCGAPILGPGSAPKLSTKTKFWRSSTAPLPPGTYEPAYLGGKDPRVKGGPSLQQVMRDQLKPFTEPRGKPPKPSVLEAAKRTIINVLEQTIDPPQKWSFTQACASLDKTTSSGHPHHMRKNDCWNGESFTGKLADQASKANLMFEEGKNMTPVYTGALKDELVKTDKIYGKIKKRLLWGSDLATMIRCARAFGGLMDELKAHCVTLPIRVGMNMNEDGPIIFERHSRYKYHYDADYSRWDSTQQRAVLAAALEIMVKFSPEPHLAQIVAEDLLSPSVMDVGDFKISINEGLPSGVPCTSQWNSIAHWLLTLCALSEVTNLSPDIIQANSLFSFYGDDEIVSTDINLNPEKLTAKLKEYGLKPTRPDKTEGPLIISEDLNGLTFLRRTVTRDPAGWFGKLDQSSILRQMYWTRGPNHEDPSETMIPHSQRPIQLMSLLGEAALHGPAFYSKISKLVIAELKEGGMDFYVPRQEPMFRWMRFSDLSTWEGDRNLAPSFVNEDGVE

## Cc1ccc(NC(=O)CS(=O)(=O)c2n[nH]c(-c3ccccc3O)n2)c(C)c1 [Compound 1f]
RAW 264.7 cells
  MNV CC50: not associated with any cytotoxicity
HuNoV (GII.4) RdRp [1]
  Inhibition of RdRp primed elongation activity (gel-shift): partial inhibition

## Cc1cc(O)ccc1-c1ccc(/C=C2\SC(=O)N(CC(=O)N3CCOCC3)C2=O)o1 [Compound 4a]
HuNoV (GII.4) RdRp [2]
  Inhibition of HuNoV RdRp activity at 20 μM: modest inhibition

## O=C1NN(c2ccccc2)C(=O)/C1=C/c1ccc(-c2ccc(S(=O)(=O)Nc3ccccc3)cc2)o1 [Compound 5]
HuNoV (GII.4) RdRp [3]
  IC50: 5.6 µM
[4]
  EC50: > 100 µM
HuNoV (GII.4) RdRp [1]
  Inhibition of RdRp primed elongation activity (gel-shift): completely abolish

## Cc1ccc(NC(=O)CSc2n[nH]c(-c3ccccc3O)n2)c(C)c1 [Compound 1]
HuNoV (GII.4) RdRp [1]
  Inhibition of RdRp primed elongation activity (gel-shift): partial inhibition

## Cc1nc(/N=N/c2cc(S(=O)(=O)O)c3cc([N+](=O)[O-])cc(S(=O)(=O)O)c3c2)c(COP(=O)(O)O)c(C=O)c1O [PPNDS, reference compound]
HuNoV (GII.4) RdRp [3]
  IC50: 1.5 ± 0.25 µM
HuNoV (GII.4) RdRp [1]
  Inhibition of RdRp primed elongation activity (gel-shift): complete inhibition
HuNoVpol
  IC50: 0.45 µM

## O=C1NN(c2ccc(O)cc2)C(=O)/C1=C/c1ccc(-c2ccc(S(=O)(=O)Nc3ccccc3)cc2)o1 [Compound 5a]
RAW 264.7 cells
  MNV CC50: CC50 value in the low micromolar range
HuNoV (GII.4) RdRp [1]
  Inhibition of RdRp primed elongation activity (gel-shift): nearly complete inhibition

## Cc1ccc(NC(=O)C[S+]([O-])c2n[nH]c(-c3ccccc3O)n2)c(C)c1 (stereo not drawn) [Compound 1e]
HuNoV (GII.4) RdRp [2]
  Inhibition of HuNoV RdRp activity at 20 μM: loss of inhibitory activity

## O=C(CN1C(=O)S/C(=C\c2ccc(-c3ccc(O)cc3)o2)C1=O)N1CCOCC1 [Compound 4b]
RAW 264.7 cells
  MNV CC50: cytotoxic effect in the micromolar range
HuNoV (GII.4) RdRp [1]
  Inhibition of RdRp primed elongation activity (gel-shift): significant but partial inhibition

## O=C(N/N=C/c1ccc(OCc2ccccc2)cc1O)c1ccccc1O [Compound 3b]
HuNoV (GII.4) RdRp [2]
  Inhibition of HuNoV RdRp activity at 20 μM: modest inhibition
HuNoV (GII.4) RdRp [1]
  Inhibition of RdRp primed elongation activity (gel-shift): did not show significant inhibition

## Cc1nc(-c2ccccc2)sc1C(=O)Nc1sc2c(c1C#N)CCC2 [NIC02]
HuNoVpol
  IC50: 5 µM
MNV
  EC50: 4.8 µM

## Cc1ccc(C(=O)Nc2ccc(S(=O)(=O)O)c3cc(S(=O)(=O)O)cc(S(=O)(=O)O)c23)cc1NC(=O)c1cccc(NC(=O)Nc2cccc(C(=O)Nc3cc(C(=O)Nc4ccc(S(=O)(=O)O)c5cc(S(=O)(=O)O)cc(S(=O)(=O)O)c45)ccc3C)c2)c1 [Suramin]
MNVpol
  IC50: 0.07 µM
HuNoVpol
  IC50: 0.025 µM

## COc1ccc(N2C(=O)c3ccc(C(=O)O)cc3C2=O)cc1NC(=O)c1ccccc1 [Compound 2]
HuNoV (GII.4) RdRp [2]
  Inhibition of HuNoV RdRp activity at 20 μM: limited RdRp inhibition
HuNoV (GII.4) RdRp [1]
  Inhibition of RdRp primed elongation activity (gel-shift): partial inhibition

## O=C(N/N=C/c1ccc(O)cc1O)c1ccccc1OCc1ccccc1 [Compound 3a]
HuNoV (GII.4) RdRp [2]
  Inhibition of HuNoV RdRp activity at 20 μM: modest inhibition
HuNoV (GII.4) RdRp [1]
  Inhibition of RdRp primed elongation activity (gel-shift): did not show significant inhibition

## NC(=O)c1nc(F)c[nH]c1=O [Compound T-705, Favipiravir]
NoV
  EC50: 21 µM
[5]
  CC50: > 100 µM

## C[C@@]1(O)[C@H](O)[C@@H](CO)O[C@H]1n1ccc(N)nc1=O [Compound 2-CMC, 2′-C-methylcytidine]
NoV
  EC50: 8.2 µM
[5]
  CC50: > 100 µM

## Cc1ccc(NC(=O)CSc2n[nH]c(-c3ccccc3O)n2)cc1 [Compound 1b]
HuNoV (GII.4) RdRp [1]
  Inhibition of RdRp primed elongation activity (gel-shift): partial inhibition

## O=C(CN1C(=O)S/C(=C\c2ccc(-c3ccc(OP(=O)(O)O)cc3)o2)C1=O)N1CCOCC1 [Compound 4c]
HuNoV (GII.4) RdRp [1]
  Inhibition of RdRp primed elongation activity (gel-shift): partial inhibition

## NC(=O)c1ncn([C@@H]2O[C@H](CO)[C@@H](O)[C@H]2O)n1 [Ribavirin]
NoV
  EC50: 43 µM
[5]
  CC50: > 100 µM

## Cc1cc(C(=O)O)ccc1-c1ccc(/C=C2\SC(=O)N(CC(=O)N3CCOCC3)C2=O)o1 [Compound 4]
RAW 264.7 cells
  MNV CC50: did not display any cytotoxicity
HuNoV (GII.4) RdRp [3]
  IC50: 15 µM

## O=C(Nc1cccc(N2C(=O)c3ccccc3C2=O)c1)c1ccccc1 [Compound 2e]
HuNoV (GII.4) RdRp [2]
  Inhibition of HuNoV RdRp activity at 20 μM: loss of inhibitory activity
